In article PMC10052880 (Phytomedicine, 2023):

Legend:
[1] = target: T1, SARS-CoV-2 3CL^pro (Severe acute respiratory syndrome coronavirus 2, UniProt P0DTD1); experiment: biochemical
[2] = target: T1, SARS-CoV-2 3CL^pro; experiment: Inactivation kinetic analyses against SARS-CoV-2 3CL^pro; type: biochemical
[3] = IC50 (μM) 3 min, 3 min preincubation
[4] = IC50 (μM) 63 min, 63 min preincubation

Compound	Ratio [1]	IC50 [1, 3]	IC50 [1, 4]	Ki [2]	kinact ([2]; read-out: Kinact (min^−1))
O=c1cc(-c2ccc(O)c(-c3c(O)cc(O)c4c(=O)cc(-c5ccc(O)cc5)oc34)c2)oc2cc(O)cc(O)c12 [amentoflavone]	1.92	82.1 µM	42.9 µM		
O=c1cc(-c2ccc(O)cc2)oc2cc(O)cc(O)c12 [apigenin]	3.62	115 µM	31.7 µM		
COc1ccc(-c2cc(=O)c3c(O)cc(O)cc3o2)cc1-c1c(O)cc(O)c2c(=O)cc(-c3ccc(O)cc3)oc12 [bilobetin]	3.54	32.1 µM	9.06 µM		
Oc1cc(O)c2c(c1)O[C@H](c1ccc(O)c(O)c1)[C@H](O)C2 [epicatechin]	6.22	70.6 µM	11.3 µM		
Oc1cc(O)c2c(c1)O[C@H](c1cc(O)c(O)c(O)c1)[C@@H](O)C2 [gallocatechin]	3.30	3.23 µM	0.98 µM	2.52 µM	0.03 min⁻¹
COc1cc(O)c2c(=O)cc(-c3ccc(OC)c(-c4c(O)cc(O)c5c(=O)cc(-c6ccc(O)cc6)oc45)c3)oc2c1 [ginkgetin]	10.32	76.5 µM	7.42 µM		
COc1ccc(-c2cc(=O)c3c(O)cc(O)c(-c4cc(-c5cc(=O)c6c(O)cc(O)cc6o5)ccc4OC)c3o2)cc1 [isoginkgetin]	2.01	70.8 µM	35.2 µM		
O=c1cc(-c2ccc(O)c(O)c2)oc2cc(O)cc(O)c12 [luteolin]	10.57	195 µM	18.4 µM		
